Test system: PD-1-deficient mouse serum
Test: Competition with recombinant cardiac troponin I in western blotting of normal mouse heart extract
Format: binding
Details: recombinant cardiac troponin I added at 1, 10 and 100 μg/ml
Procedure: PD-1-deficient mouse serum (mouse #101, #104 and #117) was used for western blotting of normal mouse heart extract. For the competition assay, recombinant cardiac troponin I was added to immune blot solution at 1, 10, and 100 μg/ml. The 30-kDa antigen recognized by PD-1-deficient mouse serum was depleted by immunoprecipitation with antibodies to anti-myocardial troponin I and was recoverable from the pellet fraction (FIG. 2 (b)).
Thus, the band was confirmed to consist solely of cardiac troponin I.

recombinant cardiac troponin I: mouse cardiac troponin I protein obtained by PreScission protease cleavage of a GST-fusion recombinant protein
intensity of the 30-kDa band recognized by PD-1-deficient mouse serum: weakened in a dose-dependent manner
